Ends that are not written are not given here.

Here are results for ten substances from US20090253206A1, “NUCLEAR TRANSPORT AGENT AND METHOD FOR PRODUCING SAID AGENT” (LONZA COLOGNE AG, priority 2006, published 2009).

Assay [1] relates to pmaxGFP plasmid DNA. In words: Electrophoretic mobility shift assay in agarose gel, NLS peptides in water (FIG. 1). Conditions: 1 μg DNA with μg amounts of peptide in water, 20 μl, 20° C., 30 min; 0.6% agarose gel. It counts as binding. As to the method:
1 μg DNA was incubated with peptide (μg amounts as indicated in the figure) in water in a total volume of 20 μl at 20° C. for 30 min. After that loading dye was added, each sample filled into a slot of a 0.6% agarose gel (Tris-acetate/EDTA as running buffer, pH 8.5). Electrophoresis was run at 90V for 120 min. P=1 μg plasmid DNA without peptide. M=kb marker (bands indicating 1.5, 2, 3, 4, 5, and 6 kb). The gel was stained with Ethidiumbromide for 10 min, then documented using a BioRad Gel-Doc System.
DNA interacting unspecifically with peptides through positively charged amino acids may mask positively charged nuclear localisation sequences (NLS) and interfere with their function in nuclear transport.
Peptides were synthesized by F-moc-Chemistry and HPLC-purified to 95% purity. The carboxyl-group at the C-terminus was amidated and the N-terminal amino-group was actylated, in order to eliminate additional charges.
DNA was pmaxGFP plasmid DNA ([…] size).
(§1) The NLS on the NLS-1 peptide may be masked and altered in its capacity to mediate nuclear translocation, whereas all other peptides are still functioning in nuclear import.
A general note: In EMSA bound probe runs differently from free probe, usually more slowly.

The test system of assay [2] is pmaxGFP plasmid DNA. In words: Electrophoretic mobility shift assay in agarose gel, peptides with different positive net charges (FIG. 2). It counts as binding. Conditions: 1 μg DNA with 1 nM peptide in water, 20 μl, 20° C., 30 min; 0.6% agarose gel. As to the method: 1 μg DNA was incubated with 1 nM peptide in water in a total volume of 20 μl at 20° C. for 30 min. After that loading dye was added, each sample filled into a slot of a 0.6% agarose gel (Tris-acetate/EDTA as running buffer, pH 8.5). Electrophoresis was run at 90V for 120 min. P=1 μg plasmid DNA without peptide. M=kb marker (bands indicating 1.5, 2, 3, 4, 5, and 6 kb). The gel was stained with Ethidiumbromide for 10 min, then documented using a BioRad Gel-Doc System.
DNA interacting unspecifically with peptides through positively charged amino acids may mask positively charged nuclear localisation sequences (NLS) and interfere with their function in nuclear transport. […] Peptides were designed with different positive net charges, 5+, 4+, 3+, 2+, 0±, by exchanging neutral amino acids for acidic ones or vice versa acidic for neutral amino acids
Peptides were synthesized by F-moc-chemistry and HPLC-purified to 95% purity. The carboxyl-group at the C-terminus was amidated and the N-terminal amino-group was actylated, in order to eliminate additional charges.
as §1

The test system of assay [3] is pmaxGFP plasmid DNA. Description: DNA-band shift of plasmid DNA with positively charged peptides and peptide-NLS in Opti-MEM (FIGS. 3 and 4). Format: binding. Conditions: 90 ng or 135 ng DNA, various peptide amounts in Opti-MEM, 20° C., 30 min; comparison between peptides. How it is done:
Plasmid DNA (90 ng per sample) was incubated with different amounts (numbers above each lane indicate pico-mole amounts per sample) of positively charged peptides (see list of peptide sequences for details) in Opti-MEM as described below.
Several positively charged peptides, as well as positively charged peptides bearing a positively charged NLS (NLS1) or a neutral NLS (NLS2) were tested for their ability to complex DNA and form higher aggregates, visible as shifts of the electrophoretic mobility of the DNA.
Peptides were synthesized by F-moc-chemistry and HPLC-purified to 95% purity. The carboxyl-group at the C-terminus was amidated and the N-terminal amino-group was actylated, in order to eliminate additional charges. U represents the spacer molecule 8-amino-3,6-dioxaoctanoic acid (UUU (U3) represents a trimer of U):
Lyophilized peptides, provided by supplier, were dissolved in distilled water to 0.1 mM. DNA was pmaxGFP plasmid DNA, 3.7 kb size (amaxa AG, Cologne), dissolved in water at 1 mg/ml. The plasmid encodes a green fluorescent protein (GFP).
For DNA-band shift experiments 90 ng or 135 ng DNA, resp., were incubated with various amounts of peptide (indicated in the figure) in Opti-MEM (Invitrogen) in a total volume of 60 μl or 90 μl, resp., at 20° C. for 30 min. Loading dye was added before each sample was filled into a slot of a 0.6% agarose gel (40 mM Tris-acetate/1 mM EDTA as running buffer, pH 8.0). Electrophoresis was run at 90V for 120 min.
P=90 ng plasmid DNA without peptide M=kb marker (bands indicating 0.5, 1, 1.5, 2, 3, 4, 5, 6, 8, and 10 kb).
The gel was stained with Ethidiumbromide for 10 min, then documented using a BioRad Gel-Doc System.
With increasing amounts of peptide the DNA band is gradually shifting, indicating decreased electrophoretic mobility due to higher molecular size of the peptide-DNA complexes and due to decrease in negative charge of the DNA compensated by the positively charged peptides. As the concentration of the peptide further increases, the molecular weight of the complexes increases as well. The complexes are therefore hardly moving into the gel, the bands appear right below the loading slot. The plasmid DNA is represented by two bands in the gel, one dominant band of super-coiled slightly above 2 kb, and a weaker band between 3 and 4 kb showing the relaxed plasmid DNA.

In assay [4] the test system is Human Umbilical Vein Endothelial Cells (HUVEC). Description: Transfection of HUVEC with ExGen500 and peptide-NLS, GFP expression by flow cytometry. Format: cell-based. The following applies: for transfection efficiency (percentage of GFP-positive cells of all viable cells): ExGen500, 1.5 μg DNA, 24 hours post transfection; for change of transfection efficiency (in words): FIG. 5 and FIG. 6. How it is done: (§2) Cells were grown and seeded as described below. FACS data of duplicate samples are shown.
Cells were grown and seeded as described below. Mean values of the duplicate samples are shown.
(§3) Human Umbilical Vein Endothelial Cells (HUVEC, from LONZA) were grown in EGM-2 medium (Bullet Kit, LONZA) and seeded in 12-well plates one day before transfection at a density of 1.2×10^5 cells per well in 1 ml EGM-2 medium (LONZA).
(§4) Transfection reagents were ExGen500 (Fermentas) and HiFect (amaxa) used according to manufacturer's protocols. Plasmid-DNA (1.5 μg), coding for green fluorescent protein (pmaxGFP, amaxa) was complexed with peptides (amounts as indicated in the figures) for 30 min at room temperature prior to mixing with transfection reagent.
For transfection with ExGen500 complex formation was done in 30 μl 150 mM NaCl solution. These preformed DNA-peptide complexes were added to transfection reagent (diluted in Opti-MEM or 150 mM NaCl according to manufacturer's protocols) and incubated.
Complete transfection samples were added to HUVEC in Opti-MEM, incubated for 1 h at 37° C./5% CO2 in a humidified incubator. Medium was aspirated, cells washed with PBS twice. Fresh medium was added, and cells were incubated for another 23 h, then prepared for flow cytometry. To differentiated PC12 transfection samples were added in Opti-MEM, incubated for 1 h. After supernatant was removed fresh medium was added. Expression of maxGFP was measured by flow cytometry and expressed as transfection efficiency (percentage of GFP-positive cells of all viable cells) and X-mean (mean fluorescent intensity of the cells) 24 h after transfection (HUVEC), 48 h or 72 h after transfection in the case of PC12.

Assay [5] has as its system neuronally differentiated PC12 cells. In words: Transfection of neuronally differentiated PC12 cells with HiFect and peptide-NLS, GFP expression by flow cytometry. Format: cell-based. Conditions: differentiated PC12, HiFect, 1 μg DNA. How it is done: (§5) Cells were grown and seeded as described below. FACS data of mean values of the duplicate samples are shown.
PC12 cells (from ATCC) were grown in F-12K medium (ATCC) with 15% horse serum (Gibco) and 2.5% foetal calf serum (ATCC). Cells were seeded in 12-well plates; 5×10^4 coated with collagen (from rat tail (SIGMA), 60 μg per well, dissolved in 0.005% acetic acid/30% ethanol at 60 μg per ml). After one day of culture nerve growth factor (NGF-β from SIGMA, 100 ng/ml final concentration) was added to differentiate neuronal cells. 7 days after start of differentiation, cells were used for transfection.
Transfection reagents were ExGen500 (Fermentas) and HiFect (amaxa) used according to manufacturer's protocols. […]
(§6) For transfection with HiFect complex formation of DNA and peptide was done in 250 μl Opti-MEM (Invitrogen) for each sample.
Complete transfection samples were added to HUVEC in Opti-MEM, incubated for 1 h at 37° C./5% CO2 in a humidified incubator. Medium was aspirated, cells washed with PBS twice. Fresh medium was added, and cells were incubated for another 23 h, then prepared for flow cytometry. […] Expression of maxGFP was measured by flow cytometry and expressed as transfection efficiency (percentage of GFP-positive cells of all viable cells) and X-mean (mean fluorescent intensity of the cells) 24 h after transfection (HUVEC), 48 h or 72 h after transfection in the case of PC12. […]

Assay [6] has as its system Human Umbilical Vein Endothelial Cells (HUVEC). In words: Transfection of HUVEC with HiFect and peptide-NLS, GFP expression by flow cytometry. Conditions: HiFect, 1.5 μg DNA, 24 hours post transfection, FIG. 8 and FIG. 9. Format: cell-based. How it is done:
as §2, §5, §3, §4, §6
Complete transfection samples were added to HUVEC in Opti-MEM, incubated for 1 h at 37° C./5% CO2 in a humidified incubator. Medium was aspirated, cells washed with PBS twice. […] Expression of maxGFP was measured by flow cytometry and expressed as transfection efficiency (percentage of GFP-positive cells of all viable cells) and X-mean (mean fluorescent intensity of the cells) 24 h after transfection (HUVEC), 48 h or 72 h after transfection in the case of PC12.
(In general: Flow cytometry measures light scatter and fluorescence of single cells or particles in a stream.)

With “GSGSPKKKRKVGSG (Ac-GSGSPKKKRKVGSG-NH2) [NLS-1, SV40 large T-antigen core NLS with glycine and serine flanks]”, the “alteration of the electrophoretic mobility of DNA (binding to DNA, aggregates)” value is “does bind to DNA and forms aggregates” in the assay with pmaxGFP plasmid DNA [1]; “do bind to DNA and form aggregates” with pmaxGFP plasmid DNA [2].

“KKKKK KKKKK KKKKK K-UUU (Ac-KKKKKKKKKKKKKKKK; not fully specified (C-terminus); printed as KKKKK KKKKK KKKKK K-UUU) [K16U3]”: the “peptide amount needed to form a high molecular weight complex / total band shift” value in the assay on pmaxGFP plasmid DNA [3] was “form a high molecular weight complex (i.e. no migration into the gel) at the same concentrations”. Moreover, in assay [4] (FIG. 5), the “transfection efficiency (percentage of GFP-positive cells of all viable cells)” value was 49.5%. Moreover, the “change of transfection efficiency (in words)” value (“change” below) in assay [4] (ExGen500, 24 h) is recorded as “decreasing transfection efficiency”.

On to “KKKKK KKKKK KKKKK K-UUU-EEDTP PKKKR KVED [K16U3-NLS2]”, for which, in assay [4] (FIG. 5), the “transfection efficiency (percentage of GFP-positive cells of all viable cells)” value amounted to 69%. For the same substance, in assay [4] (ExGen500, 24 h, compared to peptide K16U3 without NLS, FIG. 5), the “increase of transfection efficiency, factor” value was 1.4. Further, the “maximum increase in transfection efficiency, factor” value in assay [5] (72 hours post transfection, compared to HiFect without peptide, FIG. 10) amounted to 2.6.

“KKKKK KKKKK KKKKK K-UUU-GSGSP KKKRK VGSG [K16U3-NLS1]”: in assay [4] (ExGen500, 24 h), the “change” value is recorded as “increase of transfection efficiency is less distinctive”.

For “KKKKK KKKKK KKKKK KGGGS (Ac-KKKKKKKKKKKKKKKKGGGS-NH2) [K16GGGS]”, the “peptide amount needed to form a high molecular weight complex / total band shift” value in the assay on pmaxGFP plasmid DNA [3] is reported as “form a high molecular weight complex (i.e. no migration into the gel) at the same concentrations”.

For “KKKKKKKKKKKKKKKKKKKKKKKKKGGGS (KKKKKKKKKKKKKKKKKKKKKKKKKGGGS; DNA-anchoring peptide) [K25GGGS]”, the “peptide amount needed to form a high molecular weight complex / total band shift” value in the assay with pmaxGFP plasmid DNA [3] was “cause a total shift to decreased electrophoretic mobility at lower peptide amounts than K16GGGS and K16U3”.

As for “RKKRKRKKRKRKKRKRKKRKGGGS (Ac-RKKRKRKKRKRKKRKRKKRKGGGS-NH2) [RKK20GGGS]”, the “peptide amount needed to form a high molecular weight complex / total band shift” value with pmaxGFP plasmid DNA [3] was “cause a total shift to decreased electrophoretic mobility at lower peptide amounts than K16GGGS and K16U3”.

Regarding “RKKRK RKKRK RKKRK RKKRK-PEG27- EEDTP PKKKR KVED [RKK20-PEG27-NLS2]”, the “peptide amount needed to form a high molecular weight complex / total band shift” value in the assay with pmaxGFP plasmid DNA [3] is given as “behaves similarly”. Also, the “increase in transfection efficiency, factor” value in assay [4] (ExGen500, 24 h, FIG. 7, comparator not stated) was found to be 1.2; in assay [6] it was 1.5. Besides, the “maximum increase in transfection efficiency, factor” value in assay [5] (compared to peptide RKK20 without NLS, 200 pmol resp., FIG. 11) is reported as 2.8.

On to “RKKRK RKKRK RKKRK RKKRK-UUU-EEDTP PKKKR KVED [RKK20U3-NLS2]”, for which the “peptide amount needed to form a high molecular weight complex / total band shift” value in the assay with pmaxGFP plasmid DNA [3] is “seems to increase the peptide amount necessary for a total band shift”. For the same substance, the “increase in transfection efficiency, factor” value was determined as 1.2 in assay [4] (ExGen500, 24 h, compared to DNA transfected without any peptide or complexed with RKK20GGGS peptide without NLS, FIG. 6) and 2 in assay [6]. In assay [4] (ExGen500, FIG. 5 versus FIG. 6), the “peptide amount sufficient for increase in transfection efficiency (in words)” value is recorded as “lower amount of RKKU3-NLS2 than of K16U3-NLS2 is sufficient”.

For “RKKRK RKKRK RKKRK RKKRK-UUU-GSGSP KKKRK VGSG [RKK20U3-NLS1]”, the “peptide amount needed to form a high molecular weight complex / total band shift” value with pmaxGFP plasmid DNA [3] is reported as “does not behave much differently to the RKK20GGGS peptide”. Besides, the “change” value in assay [4] (ExGen500, 24 h) is “increase is higher for the NLS2-peptide than for the NLS1-bearing peptide”.
